Results taken from PMC7551059, “Bioactive Bianthraquinones and Meroterpenoids from a Marine-Derived Stemphylium sp. Fungus” (Marine Drugs, 2020).
Like-named read-outs stand apart in the source and are kept apart here.

Tested on: lipopolysaccharide (LPS)-induced nitric oxide (NO) production in RAW 264.7 mouse macrophages
Test: LPS-induced NO (nitrite) production in RAW 264.7 cells, Griess reagent
Type: cell-based
Details: for IC50: Mus musculus
Procedure: A RAW 264.7 murine macrophage cell line was purchased from American Type Cell Culture (Rockville, MD, USA). Cells were cultured in DMEM with 10% fetal bovine serum and antibiotic−antimycotics (i.e., penicillin G sodium, 100 units/mL; streptomycin, 100 μg/mL; amphotericin B, 250 ng/mL) at 37 °C in a humidified incubator with 5% carbon dioxide. All reagents used for cell culture were purchased from Gibco® Invitrogen Corp. (Grand Island, NY, USA).
The concentration of nitrite in the cultured media was used as a measure of NO production. The assay was performed as previously described. RAW 264.7 cells were plated at a density of 5 × 10^5 per well in a 24-well culture plate and incubated in a 37 °C humidified incubator with 5% CO2 in air for 18 h. The incubated cells were pretreated with phenol-red-free medium containing various concentrations of tested compounds for 30 min, followed by 1 μg/mL of LPS treatment for 18 h more. Aliquots of the supernatant from each well (100 μL) were transferred to a 96-well plate, and nitrite concentration was measured using Griess reagent. After the Griess reaction, MTT solution (final concentration of 500 μg/mL) was added to each well and further incubated for 4 h at 37 °C. Each medium was discarded, and dimethyl sulfoxide was added to each well to dissolve generated formazan. The absorbance was measured at 570 nm, and percent survival was determined by comparison with LPS treated control group. All reagents used in the nitrite production measurement were purchased from Sigma-Aldrich (St. Louis, MO, USA).

[1] = RAW264.7, RAW 264.7 cells, compounds 30 min before LPS 1 μg/mL, 18 h, read-out: IC50, suppression of LPS-induced NO production

| SMILES | IC50 [1] | further results |
| --- | --- | --- |
| COc1c(-c2cc(O)c3c(c2OC)C(=O)c2cc(C)c(O)cc2C3=O)cc(O)c2c1C(=O)C1=C(C2=O)C(O)C(O)C(C)(O)C1O (stereo not drawn) [Compound 1, alterporriol Z1] | 11.6 ± 0.7 µM |  |
| COc1cc(O)c2c(c1)C(=O)c1cc(C)c(O)c(-c3c(OC)cc(O)c4c3C(=O)C3=C(C4=O)C(OC)C(O)C(C)(O)C3O)c1C2=O (stereo not drawn) [Compound 3, alterporriol Z3] |  | IC50, suppression of LPS-induced NO production (RAW 264.7 cells, compounds 30 min before LPS 1 μg/mL, 18 h): inactive |
| COc1c(-c2cc(O)c3c(c2OC)C(=O)c2cc(C)c(O)cc2C3=O)cc(O)c2c1C(=O)C1=C(C2=O)[C@H](O)[C@@H](O)[C@@](C)(O)[C@H]1O (relative stereo) [Compound 2, alterporriol Z2] | 16.1 ± 1.1 µM |  |
| COc1cc(O)c2c(c1-c1c(OC)cc(O)c3c1C(=O)c1cc(C)c(O)cc1C3=O)C(=O)C1=C(C[C@@H](O)[C@@](C)(O)[C@@H]1O)C2=O [Compound 4, alterporriol F] | 9.6 ± 1.6 µM |  |
| COc1cc(O)c2c(c1)C(=O)c1cc(C)c(O)c(-c3c(OC)cc(O)c4c3C(=O)C3=C(C4=O)[C@H](O)[C@@H](O)[C@@](C)(O)[C@H]3O)c1C2=O [Compound 6, alterporriol N] | 10.7 ± 0.6 µM |  |
| COc1cc2c(c(O)c1-c1c(OC)cc(O)c3c1C(=O)C1=C(C3=O)[C@H](O)[C@@H](O)[C@@](C)(O)[C@@H]1O)C(=O)c1cc(O)c(C)cc1C2=O [Compound 5, alterporriol G] |  | IC50 (RAW264.7, read-out: IC50, suppression of LPS-induced NO production): 8.4 ± 0.4 µM |
